# According to patent publication US20220362396A1, “AMINO-PYRAZINECARBOXAMIDE COMPOUNDS, CONJUGATES, AND USES THEREOF” (Silverback Therapeutics, Inc., priority 2018, published 2022):
# pEC50, pIC50: −log10 of the molar value.
# Assays:
# [1] = tested on: TGFβ/SMAD Signaling Pathway SBE reporter cell line; assay: TGFβ reporter assay, in vitro small molecule screening (luciferase); assay type: cell-based; details: TGFβ stimulation, luminescence
# Summary of the method: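 SBE luciferase reporter cells (~0.5×10^6 cells/mL) preincubated with compound 5-6 h at 37 °C in 0.5% FBS MEM, then stimulated with TGFβ (12 ng/mL stock) for 18 h. Luminescence read after luciferase substrate; EC50 from curve fits.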
# TGFBR2 = biological target: T1, TGFBR2 (Homo sapiens, UniProt P37173); assay: TGFBR2 RBC assay (enzyme inhibition assay, Reaction Biology Corp.); assay type: biochemical
# T1 construct: purchased Reaction Biology Corp
# Method: Compounds of the disclosure were also assayed by Reaction Biology Corp. using the TGFBR2 RBC assay (enzyme inhibition assay). […] NT refers to not tested.
# T1 sequence (P37173 23-567): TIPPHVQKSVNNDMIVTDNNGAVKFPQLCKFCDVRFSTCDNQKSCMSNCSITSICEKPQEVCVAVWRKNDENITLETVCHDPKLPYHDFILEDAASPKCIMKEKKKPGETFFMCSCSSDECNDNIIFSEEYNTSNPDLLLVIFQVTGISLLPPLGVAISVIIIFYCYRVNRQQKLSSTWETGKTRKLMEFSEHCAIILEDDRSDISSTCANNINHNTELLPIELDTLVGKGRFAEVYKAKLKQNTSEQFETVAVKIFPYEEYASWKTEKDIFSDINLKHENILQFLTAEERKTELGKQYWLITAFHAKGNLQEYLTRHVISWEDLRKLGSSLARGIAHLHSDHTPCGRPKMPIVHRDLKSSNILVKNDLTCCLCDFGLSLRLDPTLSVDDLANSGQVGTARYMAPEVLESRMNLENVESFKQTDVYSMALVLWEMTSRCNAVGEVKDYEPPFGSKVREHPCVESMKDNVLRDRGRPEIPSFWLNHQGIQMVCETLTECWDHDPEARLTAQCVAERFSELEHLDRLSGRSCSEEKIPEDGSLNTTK
SMILES,pEC50 [1],pIC50 (TGFBR2)
NCCc1ccc(-c2cnc(N)c(C(=O)Nc3cnc(N)cc3N3CCOCC3)n2)cc1 [Compound 135],< 6.00,< 6.00
NCCc1ccc(-c2cnc(N)c(C(=O)Nc3cnccc3-n3ccnc3)n2)cc1 [Compound 136],< 6.00,> 7.30
Nc1ncc(-c2ccc(CCNC(=O)OCc3ccccc3)cc2)nc1C(=O)Nc1cnccc1-n1ccnc1 [Compound 137],< 6.00,> 7.30
Cc1nccn1-c1ccncc1NC(=O)c1nc(-c2ccc(CCN)cc2)cnc1N [Compound 138],< 6.00,> 7.30
NCCc1ccc(-c2cnc(N)c(C(=O)Nc3cncc(Cl)c3N3CCOCC3)n2)cc1 [Compound 139],6.00 to 7.00,> 7.30
CCc1nccn1-c1ccncc1NC(=O)c1nc(-c2ccc(CCN)cc2)cnc1N [Compound 140],< 6.00,> 7.30
CCc1nccn1-c1ccncc1NC(=O)c1nc(-c2ccc(CCNC(=O)OCc3ccccc3)cc2)cnc1N [Compound 141],< 6.00,> 7.30
CC(C)c1nccn1-c1ccncc1NC(=O)c1nc(-c2ccc(CCN)cc2)cnc1N [Compound 142],6.00 to 7.00,> 7.30
CC(C)c1nccn1-c1ccncc1NC(=O)c1nc(-c2ccc(CCNC(=O)OCc3ccccc3)cc2)cnc1N [Compound 143],< 6.00,> 7.30
Nc1ncc(-c2ccc(CCNC(=O)OCc3ccccc3)cc2)nc1C(=O)Nc1cncc(-c2ccccc2[N+](=O)[O-])c1 [Compound 144],< 6.00,> 7.30
NCCc1ccc(-c2cnc(N)c(C(=O)Nc3cncc(-c4ccccc4N)c3)n2)cc1 [Compound 148],< 6.00,6.00 to 7.00
NCCc1ccc(-c2cnc(N)c(C(=O)Nc3cncc(-c4cccc(N)c4)c3)n2)cc1 [Compound 149],< 6.00,7.00 to 7.30
COc1ccccc1-c1cnc(N)c(C(=O)Nc2cnccc2N2CCOCC2)n1 [Compound 150],< 6.00,6.00 to 7.00
Nc1ncc(-c2ccccc2Cl)nc1C(=O)Nc1cnccc1N1CCOCC1 [Compound 151],6.00 to 7.00,7.00 to 7.30
Nc1ncc(-c2cccc(Cl)c2)nc1C(=O)Nc1cnccc1N1CCOCC1 [Compound 152],6.00 to 7.00,> 7.30
Nc1ncc(-c2ccc(Cl)cc2Cl)nc1C(=O)Nc1cnccc1N1CCOCC1 [Compound 153],< 6.00,6.00 to 7.00
Nc1ncc(-c2ccc(Cl)c(Cl)c2)nc1C(=O)Nc1cnccc1N1CCOCC1 [Compound 154],< 6.00,6.00 to 7.00
COc1cccc(-c2cnc(N)c(C(=O)Nc3cnccc3N3CCOCC3)n2)c1 [Compound 155],6.00 to 7.00,> 7.30
COc1ccc(-c2cnc(N)c(C(=O)Nc3cnccc3N3CCOCC3)n2)cc1 [Compound 156],6.00 to 7.00,> 7.30
COc1ccc(-c2cnc(N)c(C(=O)Nc3cnccc3N3CCOCC3)n2)c(OC)c1 [Compound 157],6.00 to 7.00,6.00 to 7.00
COc1ccc(-c2cnc(N)c(C(=O)Nc3cnccc3N3CCOCC3)n2)cc1OC [Compound 158],6.00 to 7.00,> 7.30

SMILES,pEC50 [1],pIC50 (TGFBR2)
COc1ccc(OC)c(-c2cnc(N)c(C(=O)Nc3cnccc3N3CCOCC3)n2)c1 [Compound 159],6.00 to 7.00,6.00 to 7.00
Nc1ncc(-c2ccc(Cl)cc2)nc1C(=O)Nc1cnccc1N1CCOCC1 [Compound 160],6.00 to 7.00,> 7.30
Nc1ncc(-c2cc(Cl)ccc2Cl)nc1C(=O)Nc1cnccc1N1CCOCC1 [Compound 161],6.00 to 7.00,6.00 to 7.00
Nc1ncc(-c2ccc(O[C@@H]3CCN(C(=O)OCc4ccccc4)C3)cc2)nc1C(=O)Nc1cnccc1N1CCOCC1 [Compound 162],6.00 to 7.00,> 7.30
Nc1ncc(-c2ccc(O[C@@H]3CCCN(C(=O)OCc4ccccc4)C3)cc2)nc1C(=O)Nc1cnccc1N1CCOCC1 [Compound 163],6.00 to 7.00,6.00 to 7.00
Nc1ncc(-c2ccc(O[C@H]3CCN(C(=O)OCc4ccccc4)C3)cc2)nc1C(=O)Nc1cnccc1N1CCOCC1 [Compound 164],6.00 to 7.00,7.00 to 7.30
Nc1ncc(-c2ccc(O[C@H]3CCCN(C(=O)OCc4ccccc4)C3)cc2)nc1C(=O)Nc1cnccc1N1CCOCC1 [Compound 165],6.00 to 7.00,6.00 to 7.00
Nc1ncc(-c2ccc(OC3CCN(C(=O)OCc4ccccc4)CC3)cc2)nc1C(=O)Nc1cnccc1N1CCOCC1 [Compound 166],6.00 to 7.00,6.00 to 7.00
Nc1ncc(-c2ccc(OC3CCNCC3)cc2)nc1C(=O)Nc1cnccc1N1CCOCC1 [Compound 167],7.00 to 7.30,> 7.30
Nc1ncc(-c2ccc(O[C@@H]3CCCNC3)cc2)nc1C(=O)Nc1cnccc1N1CCOCC1 [Compound 168],7.00 to 7.30,> 7.30
Nc1ncc(-c2ccc(O[C@H]3CCCNC3)cc2)nc1C(=O)Nc1cnccc1N1CCOCC1 [Compound 169],7.00 to 7.30,> 7.30
COc1cccc(OC)c1-c1cnc(N)c(C(=O)Nc2cnccc2N2CCOCC2)n1 [Compound 172],< 6.00,< 6.00
Nc1ncc(-c2c(Cl)cccc2Cl)nc1C(=O)Nc1cnccc1N1CCOCC1 [Compound 173],6.00 to 7.00,< 6.00
Nc1ncc(-c2ccc3c(c2)CCCO3)nc1C(=O)Nc1cnccc1N1CCOCC1 [Compound 174],6.00 to 7.00,> 7.30
NCc1cccc(-c2cnc(N)c(C(=O)Nc3cnccc3N3CCOCC3)n2)c1 [Compound 175],6.00 to 7.00,6.00 to 7.00
Nc1ncc(-c2cccc(CNC(=O)OCc3ccccc3)c2)nc1C(=O)Nc1cnccc1N1CCOCC1 [Compound 176],6.00 to 7.00,> 7.30
Nc1ncc(-c2cccc(CCNC(=O)OCc3ccccc3)c2)nc1C(=O)Nc1cnccc1N1CCOCC1 [Compound 177],6.00 to 7.00,7.00 to 7.30
Nc1ncc(-c2cccc(CCCNC(=O)OCc3ccccc3)c2)nc1C(=O)Nc1cnccc1N1CCOCC1 [Compound 178],6.00 to 7.00,> 7.30
Nc1ncc(-c2cccc3c2CCC3)nc1C(=O)Nc1cnccc1N1CCOCC1 [Compound 179],< 6.00,7.00 to 7.30
Nc1ncc(-c2ccccc2)nc1C(=O)Nc1cnccc1N1CCOCC1 [Compound 180],6.00 to 7.00,7.00 to 7.30
NCCc1cccc(-c2cnc(N)c(C(=O)Nc3cnccc3N3CCOCC3)n2)c1 [Compound 181],6.00 to 7.00,> 7.30

SMILES,pEC50 [1],pIC50 (TGFBR2)
NCCCc1cccc(-c2cnc(N)c(C(=O)Nc3cnccc3N3CCOCC3)n2)c1 [Compound 182],6.00 to 7.00,> 7.30
CC(C)(C)OC(=O)NCCOc1cccc(-c2cnc(N)c(C(=O)Nc3cnccc3N3CCOCC3)n2)c1 [Compound 183],6.00 to 7.00,> 7.30
NCCOc1cccc(-c2cnc(N)c(C(=O)Nc3cnccc3N3CCOCC3)n2)c1 [Compound 184],6.00 to 7.00,> 7.30
Nc1ncc(-c2ccc3c(c2)CCC3)nc1C(=O)Nc1cnccc1N1CCOCC1 [Compound 185],6.00 to 7.00,> 7.30
Nc1ncc(Cc2ccccc2)nc1C(=O)Nc1cnccc1N1CCOCC1 [Compound 186],< 6.00,< 6.00
NCCc1ccc(-c2cnc(N)c(C(=O)Nc3cnccc3-n3cncn3)n2)cc1 [Compound 187],6.00 to 7.00,> 7.30
Nc1ncc(-c2ccc(CCNC(=O)OCc3ccccc3)cc2)nc1C(=O)Nc1cnccc1-n1cncn1 [Compound 188],< 6.00,> 7.30
CC(COc1cccc(-c2cnc(N)c(C(=O)Nc3cnccc3N3CCOCC3)n2)c1)NC(=O)OC(C)(C)C (stereo not drawn) [Compound 189],< 6.00,> 7.30
CC(CN)Oc1cccc(-c2cnc(N)c(C(=O)Nc3cnccc3N3CCOCC3)n2)c1 (stereo not drawn) [Compound 190],6.00 to 7.00,7.00 to 7.30
CC(CNC(=O)OC(C)(C)C)Oc1cccc(-c2cnc(N)c(C(=O)Nc3cnccc3N3CCOCC3)n2)c1 (stereo not drawn) [Compound 191],< 6.00,> 7.30
COC(=O)[C@@H](Cc1ccc(-c2cnc(N)c(C(=O)Nc3cnccc3N3CCOCC3)n2)cc1)NC(=O)OC(C)(C)C [Compound 192],6.00 to 7.00,> 7.30
Nc1ncc(-c2ccc3c(c2)CCCN3)nc1C(=O)Nc1cnccc1N1CCOCC1 [Compound 193],7.00 to 7.30,> 7.30
CC(N)COc1cccc(-c2cnc(N)c(C(=O)Nc3cnccc3N3CCOCC3)n2)c1 (stereo not drawn) [Compound 194],6.00 to 7.00,> 7.30
COC(=O)[C@H](N)Cc1ccc(-c2cnc(N)c(C(=O)Nc3cnccc3N3CCOCC3)n2)cc1 [Compound 195],6.00 to 7.00,> 7.30
CC(C)(C)OC(=O)N[C@H](Cc1ccc(-c2cnc(N)c(C(=O)Nc3cnccc3N3CCOCC3)n2)cc1)C(=O)O [Compound 196],6.00 to 7.00,> 7.30
Nc1ncc(-c2ccc(C[C@@H](N)C(=O)O)cc2)nc1C(=O)Nc1cnccc1N1CCOCC1 [Compound 197],< 6.00,6.00 to 7.00
Nc1ncc(-c2ccc3c(c2)CCC(=O)N3)nc1C(=O)Nc1cnccc1N1CCOCC1 [Compound 198],6.00 to 7.00,7.00 to 7.30
CC(C)(C)OC(=O)N[C@@H](CO)Cc1ccc(-c2cnc(N)c(C(=O)Nc3cnccc3N3CCOCC3)n2)cc1 [Compound 199],< 6.00,> 7.30
COC(=O)[C@H](Cc1ccc(-c2cnc(N)c(C(=O)Nc3cnccc3N3CCOCC3)n2)cc1)NC(=O)OC(C)(C)C [Compound 200],< 6.00,> 7.30
Nc1ncc(-c2ccc3c(c2)CCNC3=O)nc1C(=O)Nc1cnccc1N1CCOCC1 [Compound 201],6.00 to 7.00,6.00 to 7.00
Nc1ncc(-c2ccc(C[C@@H](N)CO)cc2)nc1C(=O)Nc1cnccc1N1CCOCC1 [Compound 202],6.00 to 7.00,> 7.30
